In US5936063A, “Antimicrobial peptide isolated from Bufo bufo gargarizans” (priority 1998, dated 1999):

Columns and labels:
Salmonella typhimurium = assay: Minimal inhibitory concentration test; assay type: cell-based; details: Gram-negative bacteria
Experimental: (§1) Antimicrobial activity of the peptide of the invention was measured by its minimal inhibitory concentration against various test microorganisms (see: Table 1).
(§2) On the other hand, comparison of the antimicrobial activity of the peptide with a commercially available Magainin 2 (Sigma, USA) was followed and summarized in Table 2 below.

Staphylococcus aureus = assay: Minimal inhibitory concentration test; assay type: cell-based; details: Gram-positive bacteria
Experimental: as §1, §2

Magainin 2
Minimal inhibitory concentration (Salmonella typhimurium): 25 mg/mL | Minimal inhibitory concentration (Staphylococcus aureus): 13 mg/mL
